Assay results from PubChem BioAssay (NCI).
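Method: 48-hour compound exposure of cells in 96-well plates, five concentrations, linear interpolation of endpoints. TGI is the concentration that stops growth completely.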

Key:
Assay in all cases: inhibition of tumour cell growth, NCI panel, 48 h
HL-60(TB) leukemia = system: HL-60(TB) leukemia
HS 578T breast = system: HS 578T breast
IGROV1 ovarian = system: IGROV1 ovarian
SW-620 colon = system: SW-620 colon
SNB-75 CNS = system: SNB-75 CNS
RPMI-8226 leukemia = system: RPMI-8226 leukemia
HCT-116 colon = system: HCT-116 colon
SF-268 CNS = system: SF-268 CNS
SK-OV-3 ovarian = system: SK-OV-3 ovarian
SF-295 CNS = system: SF-295 CNS

In the case of `NC(N)=NCCCS(=O)(=O)Nc1ccc(Nc2c3ccccc3nc3cc([N+](=O)[O-])ccc23)cc1`, the TGI (HL-60(TB) leukemia) is reported as over 82.4 µM, the TGI (HS 578T breast) is reported as 50.9 µM and the TGI (IGROV1 ovarian) is reported as 79.5 µM. For the same compound, the TGI (SW-620 colon) was 58 µM, the TGI (SNB-75 CNS) was 45.8 µM and the TGI (RPMI-8226 leukemia) was 66.6 µM. The TGI (HCT-116 colon) was 63.5 µM, the TGI (SF-268 CNS) was 35.6 µM and the TGI (SK-OV-3 ovarian) was 55.5 µM. The TGI (SF-295 CNS) was 59 µM.

For `CSC(=S)Nc1cc(C)ccn1`, the TGI (HL-60(TB) leukemia) was over 100 µM, the TGI (HS 578T breast) was over 100 µM and the TGI (IGROV1 ovarian) was 58 µM. For the same compound, the TGI (SW-620 colon) was over 100 µM, the TGI (SNB-75 CNS) was over 100 µM and the TGI (RPMI-8226 leukemia) was over 100 µM. It also gave a TGI (HCT-116 colon) of over 100 µM, a TGI (SF-268 CNS) of over 100 µM and a TGI (SK-OV-3 ovarian) of over 100 µM. It also gave a TGI (SF-295 CNS) of over 100 µM.

Compound `CCOP(=O)(OCC)OC1CC(n2cnc3c(N(CC)CC)ncnc32)OC1CO[Si](C)(C)C(C)(C)C` (stereo not given) has a TGI (HL-60(TB) leukemia) of over 100 µM, a TGI (HS 578T breast) of 77.1 µM and a TGI (IGROV1 ovarian) of 32.3 µM. For the same compound, the TGI (SW-620 colon) was 35.2 µM, the TGI (SNB-75 CNS) was 23.3 µM and the TGI (RPMI-8226 leukemia) was over 100 µM. The TGI (HCT-116 colon) was 30.6 µM, the TGI (SF-268 CNS) was 31.5 µM and the TGI (SK-OV-3 ovarian) was 31.6 µM. It also gave a TGI (SF-295 CNS) of 31 µM.

`COC(=O)C1(Cc2ccccc2C)Cc2ccc(C)cc2C1=O` (stereo not given) showed a TGI (HL-60(TB) leukemia) of 30.9 µM, a TGI (HS 578T breast) of over 100 µM and a TGI (IGROV1 ovarian) of over 100 µM. It also gave a TGI (SW-620 colon) of over 100 µM, a TGI (SNB-75 CNS) of over 100 µM and a TGI (RPMI-8226 leukemia) of 32.2 µM. For the same compound, the TGI (HCT-116 colon) was over 100 µM, the TGI (SF-268 CNS) was over 100 µM and the TGI (SK-OV-3 ovarian) was over 100 µM. For the same compound, the TGI (SF-295 CNS) was over 100 µM.

In the case of `ClCc1nc2cc(Cl)ccc2o1`, the TGI (HL-60(TB) leukemia) is reported as 21.1 µM, the TGI (HS 578T breast) is reported as over 61.5 µM and the TGI (IGROV1 ovarian) is reported as 3.29 µM. The TGI (SW-620 colon) was over 67.2 µM, the TGI (SNB-75 CNS) was 24.1 µM and the TGI (RPMI-8226 leukemia) was 4.07 µM. For the same compound, the TGI (HCT-116 colon) was 20.4 µM, the TGI (SF-268 CNS) was 26.7 µM and the TGI (SK-OV-3 ovarian) was 28.9 µM. The TGI (SF-295 CNS) was 37.4 µM.

`c1ncc(C23C4C5C6C4C2C6C53)[nH]1` (stereo not given) gave a TGI (HL-60(TB) leukemia) of over 100 µM, a TGI (HS 578T breast) of over 100 µM and a TGI (IGROV1 ovarian) of over 100 µM. It also gave a TGI (SW-620 colon) of over 100 µM, a TGI (SNB-75 CNS) of over 100 µM and a TGI (RPMI-8226 leukemia) of over 100 µM. It also gave a TGI (HCT-116 colon) of over 100 µM, a TGI (SF-268 CNS) of over 100 µM and a TGI (SK-OV-3 ovarian) of over 100 µM. For the same compound, the TGI (SF-295 CNS) was over 100 µM.

With `c1ccc(NC2(c3nnnn3C3CCCCC3)CCNCC2)cc1` the TGI (HL-60(TB) leukemia) was 31.5 µM, the TGI (HS 578T breast) was 32.2 µM and the TGI (IGROV1 ovarian) was over 100 µM. The TGI (SW-620 colon) was 43.4 µM, the TGI (SNB-75 CNS) was 32.7 µM and the TGI (RPMI-8226 leukemia) was 59.6 µM. It also gave a TGI (HCT-116 colon) of 28.5 µM, a TGI (SF-268 CNS) of over 100 µM and a TGI (SK-OV-3 ovarian) of 83.4 µM. For the same compound, the TGI (SF-295 CNS) was 34.6 µM.

For `Nc1nc(Cl)cc(NCC2(CO)CC(O)C2)n1` (stereo not given), the TGI (HL-60(TB) leukemia) was over 100 µM, the TGI (HS 578T breast) was over 100 µM and the TGI (IGROV1 ovarian) was over 100 µM. It also gave a TGI (SW-620 colon) of over 100 µM, a TGI (SNB-75 CNS) of over 100 µM and a TGI (RPMI-8226 leukemia) of over 100 µM. For the same compound, the TGI (HCT-116 colon) was over 100 µM, the TGI (SF-268 CNS) was over 100 µM and the TGI (SK-OV-3 ovarian) was over 100 µM. For the same compound, the TGI (SF-295 CNS) was over 100 µM.

Compound `COc1cc([C@@H]2c3cc4c(cc3[C@@H](N=Cc3ccc(C(=O)O[C@H]5C[C@H]6OC[C@@]6(OC(C)=O)[C@H]6[C@H](OC(=O)c7ccccc7)[C@]7(O)C[C@H](OC(=O)[C@H](OC(=O)c8ccc(C=N[C@@H]9c%10cc%11c(cc%10[C@@H](c%10cc(OC)c(O)c(OC)c%10)[C@H]%10C(=O)OC[C@@H]%109)OCO%11)cc8)[C@@H](NC(=O)c8ccccc8)c8ccccc8)C(C)=C([C@@H](OC(C)=O)C(=O)[C@]56C)C7(C)C)cc3)C3COC(=O)C32)OCO4)cc(C)c1O` (stereo not given in full) has a TGI (HL-60(TB) leukemia) of over 50 µM, a TGI (HS 578T breast) of over 50 µM and a TGI (IGROV1 ovarian) of over 50 µM. The TGI (SW-620 colon) was over 50 µM, the TGI (SNB-75 CNS) was over 50 µM and the TGI (RPMI-8226 leukemia) was over 50 µM. It also gave a TGI (HCT-116 colon) of over 50 µM, a TGI (SF-268 CNS) of over 50 µM and a TGI (SK-OV-3 ovarian) of over 39.3 µM. It also gave a TGI (SF-295 CNS) of over 50 µM.

Compound `CNC1=C(C)C(=O)C2=C(C1=O)C(COC(N)=O)C1(OC)C3NC3CN21` (stereo not given) has a TGI (HL-60(TB) leukemia) of over 100 µM, a TGI (HS 578T breast) of 30.5 µM and a TGI (IGROV1 ovarian) of 91.2 µM. It also gave a TGI (SW-620 colon) of over 100 µM, a TGI (SNB-75 CNS) of 0.971 µM and a TGI (RPMI-8226 leukemia) of 66.7 µM. The TGI (HCT-116 colon) was over 100 µM, the TGI (SF-268 CNS) was 12.9 µM and the TGI (SK-OV-3 ovarian) was 36.5 µM. For the same compound, the TGI (SF-295 CNS) was 10.5 µM.

In the case of `Nc1cccc2cc(S(=O)(=O)Nc3ccc(C(=O)O)cc3)ccc12`, the TGI (HL-60(TB) leukemia) is reported as over 100 µM, the TGI (HS 578T breast) is reported as over 100 µM and the TGI (IGROV1 ovarian) is reported as over 100 µM. It also gave a TGI (SW-620 colon) of over 100 µM, a TGI (SNB-75 CNS) of over 100 µM and a TGI (RPMI-8226 leukemia) of over 100 µM. For the same compound, the TGI (HCT-116 colon) was over 100 µM, the TGI (SF-268 CNS) was over 100 µM and the TGI (SK-OV-3 ovarian) was over 100 µM. For the same compound, the TGI (SF-295 CNS) was over 100 µM.

Compound `CC1(c2nc3ccccc3[nH]2)CCC(CO)C(C)(C)O1` (stereo not given) has a TGI (HL-60(TB) leukemia) of over 100 µM, a TGI (HS 578T breast) of over 100 µM and a TGI (IGROV1 ovarian) of over 100 µM. It also gave a TGI (SW-620 colon) of over 100 µM, a TGI (SNB-75 CNS) of over 100 µM and a TGI (RPMI-8226 leukemia) of over 100 µM. The TGI (HCT-116 colon) was over 100 µM, the TGI (SF-268 CNS) was over 100 µM and the TGI (SK-OV-3 ovarian) was over 100 µM. The TGI (SF-295 CNS) was over 100 µM.

With `O=C(N/N=C1\CCc2ccccc21)N/N=C1\CCc2ccccc21` the TGI (HL-60(TB) leukemia) was over 100 µM, the TGI (HS 578T breast) was over 100 µM and the TGI (IGROV1 ovarian) was over 100 µM. The TGI (SW-620 colon) was over 100 µM, the TGI (SNB-75 CNS) was over 100 µM and the TGI (RPMI-8226 leukemia) was over 100 µM. The TGI (HCT-116 colon) was over 100 µM, the TGI (SF-268 CNS) was over 100 µM and the TGI (SK-OV-3 ovarian) was over 100 µM. For the same compound, the TGI (SF-295 CNS) was over 100 µM.

`COc1cc(/C=C2\N=C(c3ccccc3)N(/N=C/c3cc4cc(C)ccc4nc3Cl)C2=O)ccc1O` gave a TGI (HL-60(TB) leukemia) of 76.6 µM, a TGI (HS 578T breast) of over 100 µM and a TGI (IGROV1 ovarian) of over 100 µM. For the same compound, the TGI (SW-620 colon) was over 100 µM, the TGI (SNB-75 CNS) was 83.9 µM and the TGI (RPMI-8226 leukemia) was 80.8 µM. It also gave a TGI (HCT-116 colon) of 51.8 µM, a TGI (SF-268 CNS) of over 100 µM and a TGI (SK-OV-3 ovarian) of over 100 µM. For the same compound, the TGI (SF-295 CNS) was over 100 µM.

`COC(=O)/C=C(\S/C(=C(/c1ccccc1)n1cc(C(=O)OC)c(C(=O)OC)n1)c1ccccc1)C(=O)OC` showed a TGI (HL-60(TB) leukemia) of 12.6 µM, a TGI (HS 578T breast) of 96.3 µM and a TGI (IGROV1 ovarian) of 31.9 µM. The TGI (SW-620 colon) was 16.9 µM, the TGI (SNB-75 CNS) was 95.2 µM and the TGI (RPMI-8226 leukemia) was 26.9 µM. The TGI (HCT-116 colon) was 37.1 µM, the TGI (SF-268 CNS) was 32.8 µM and the TGI (SK-OV-3 ovarian) was over 100 µM. The TGI (SF-295 CNS) was over 100 µM.

Work on `O=C(O)c1ccccc1/C=C1\Cc2ccc3c(c2C1=O)CCCC3` yielded a TGI (HL-60(TB) leukemia) of 62.3 µM, a TGI (HS 578T breast) of 81.2 µM and a TGI (IGROV1 ovarian) of over 100 µM. The TGI (SW-620 colon) was over 100 µM, the TGI (SNB-75 CNS) was 86 µM and the TGI (RPMI-8226 leukemia) was 60.8 µM. The TGI (HCT-116 colon) was 80.4 µM, the TGI (SF-268 CNS) was over 100 µM and the TGI (SK-OV-3 ovarian) was over 100 µM. For the same compound, the TGI (SF-295 CNS) was 99.5 µM.

`N#Cc1c(-c2ccccc2)cc(Nc2ccc(F)cc2)n2c1nc1ccccc12` gave a TGI (HL-60(TB) leukemia) of over 100 µM, a TGI (HS 578T breast) of 4.68 µM and a TGI (IGROV1 ovarian) of over 100 µM. It also gave a TGI (SW-620 colon) of over 100 µM, a TGI (SNB-75 CNS) of 6.76 µM and a TGI (RPMI-8226 leukemia) of over 100 µM. It also gave a TGI (HCT-116 colon) of 6.06 µM, a TGI (SF-268 CNS) of over 62.1 µM and a TGI (SK-OV-3 ovarian) of 8.71 µM. For the same compound, the TGI (SF-295 CNS) was over 29.6 µM.

For `CC(=O)NC1C(OCc2ccccc2)OC(CO)C(O)C1OCC(=O)NC(C)C(=O)NC(CCC(=O)Nc1ccc2c(c1)CN1C(=O)c3ccccc3C1=N2)C(N)=O` (stereo not given), the TGI (HL-60(TB) leukemia) was over 100 µM, the TGI (HS 578T breast) was over 100 µM and the TGI (IGROV1 ovarian) was over 100 µM. It also gave a TGI (SW-620 colon) of over 100 µM, a TGI (SNB-75 CNS) of over 100 µM and a TGI (RPMI-8226 leukemia) of over 100 µM. The TGI (HCT-116 colon) was over 100 µM, the TGI (SF-268 CNS) was over 100 µM and the TGI (SK-OV-3 ovarian) was over 100 µM. For the same compound, the TGI (SF-295 CNS) was over 100 µM.
